Data: publication PMC10386454 (Pharmaceutics, 2023)

How the values were obtained:
[1] = system: HEK293 empty vector transfected cells (mock); experiment: Forskolin-stimulated cAMP production in mock-transfected HEK293 cells; format: cell-based, human; conditions: extracts […] (Ex18 0.005 mg/mL), melatonin 1 µM
[2] = system: HEK293 empty vector transfected cells (mock); experiment: ERK1/2 activation assay in mock HEK293 cells; format: cell-based, human; conditions: MLT 1 µM
[3] = system: HEK293 empty vector transfected cells (mock); experiment: β-arrestin2 recruitment assay (PathHunter), control cells with β-gal donor not fused to melatonin receptors; format: cell-based, human; conditions: extracts […], Ex18 0.005 mg/mL, MLT 1 µM
human MT1 [4] = target: T1, human MT1 (Homo sapiens, UniProt P48039); experiment: Inhibition of forskolin-stimulated cAMP production, HEK293 cells expressing MT1; format: cell-based; parameters: expressed in transfected cells; conditions: single concentration: extracts […] (Ex18 0.005 mg/mL), melatonin 1 µM; normalized to mock cell responses
Target sequence in this assay (P48039 whole entry): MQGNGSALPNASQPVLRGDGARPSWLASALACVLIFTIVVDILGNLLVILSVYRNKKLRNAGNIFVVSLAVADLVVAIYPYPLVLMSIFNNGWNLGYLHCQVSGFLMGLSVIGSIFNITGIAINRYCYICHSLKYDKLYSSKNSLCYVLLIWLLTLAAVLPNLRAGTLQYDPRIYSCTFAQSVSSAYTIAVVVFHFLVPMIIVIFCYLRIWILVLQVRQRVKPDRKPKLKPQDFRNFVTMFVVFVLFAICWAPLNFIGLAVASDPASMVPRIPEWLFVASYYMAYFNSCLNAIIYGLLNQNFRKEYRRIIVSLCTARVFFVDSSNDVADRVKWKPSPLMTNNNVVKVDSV

human MT1 [5] = target: T1, human MT1; experiment: β-arrestin2 recruitment assay (PathHunter), MT1; format: cell-based; parameters: host or cells: HEK 293 PathHunter parental cells, transient transfection of the receptor; conditions: single saturating concentration
Target sequence in this assay (P48039 whole entry): as above
Target sequence in this assay (P32121 whole entry partner): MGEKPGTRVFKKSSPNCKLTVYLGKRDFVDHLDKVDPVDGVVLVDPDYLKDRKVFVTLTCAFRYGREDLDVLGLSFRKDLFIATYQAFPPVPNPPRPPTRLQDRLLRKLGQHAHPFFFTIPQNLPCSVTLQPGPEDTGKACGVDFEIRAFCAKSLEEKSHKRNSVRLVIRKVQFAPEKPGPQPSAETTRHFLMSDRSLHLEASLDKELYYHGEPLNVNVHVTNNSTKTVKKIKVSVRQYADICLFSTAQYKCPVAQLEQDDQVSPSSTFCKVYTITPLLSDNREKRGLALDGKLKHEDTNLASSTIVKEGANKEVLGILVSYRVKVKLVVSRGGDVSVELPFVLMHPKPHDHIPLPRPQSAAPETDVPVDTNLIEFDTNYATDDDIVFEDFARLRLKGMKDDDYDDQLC

human MT2 receptor = target: T2, human MT2 receptor (Homo sapiens, UniProt P49286); experiment: 2-[125I]iodomelatonin competitive binding assay, MT2
T2 construct: expressed in transfected cells
T2 sequence (P49286 1-362): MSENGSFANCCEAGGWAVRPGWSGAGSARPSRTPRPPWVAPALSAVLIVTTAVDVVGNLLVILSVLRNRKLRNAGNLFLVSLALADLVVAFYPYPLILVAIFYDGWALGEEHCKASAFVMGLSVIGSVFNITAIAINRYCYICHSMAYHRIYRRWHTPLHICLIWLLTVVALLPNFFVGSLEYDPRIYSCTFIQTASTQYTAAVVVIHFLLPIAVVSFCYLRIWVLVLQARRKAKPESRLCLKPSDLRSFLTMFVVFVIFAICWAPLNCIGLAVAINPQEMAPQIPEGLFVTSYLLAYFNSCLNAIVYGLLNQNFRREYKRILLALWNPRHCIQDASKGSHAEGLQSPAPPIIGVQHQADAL

human MT1 [6] = target: T1, human MT1; experiment: 2-[125I]iodomelatonin competitive binding assay, MT1; parameters: expressed in transfected cells
Target sequence in this assay (P48039 whole entry): as the sequence (P48039 whole entry) above

| effect on FSK-stimulated cAMP production, cells expressing MT1 (human MT1 [4]) | β-arrestin2 recruitment, MT1-β-gal donor fusion protein (human MT1 [5]) | 2-[125I]-MLT binding to MT2, result in words (human MT2 receptor) | 2-[125I]-MLT binding to MT1, result in words (human MT1 [6]) | Compound | effect on forskolin (FSK)-stimulated cAMP levels in mock cells [1] | effect on ERK1/2 pathway in mock cells, in words [2] | β-arrestin2 recruitment in control cells (β-gal donor alone) [3] |
| --- | --- | --- | --- | --- | --- | --- | --- |
| decreased FSK-stimulated cAMP production | induced β-arrestin2 recruitment |  |  | COc1ccc2[nH]cc(CCNC(C)=O)c2c1 [Melatonin, N-acety-5-methoxyltryptamine] | did not show any effect | without effect | Neither melatonin nor any extract induced β-arrestin2 recruitment |
|  |  | no impact | no impact | maltodextrin |  |  |  |
